The values that follow come from patent publication US9351963B2, “Defensin-like molecules as novel antimicrobial agents” (UNIVERSITY OF MARYLAND, BALTIMORE, priority 2010, dated 2016).

Experiment [1] deals with Escherichia coli ATCC 25922. The experiment is described as follows: 96-well turbidimetric antibacterial killing assay, E. coli. In kind it is cell-based. The settings on record: E. coli ATCC 25922, 120 min exposure. How it is done: The antibacterial activity of defensin mimetics against Staphylococcus aureus ATCC 29213 and Escherichia coli 25922 was carried out in a 96-well turbidimetric assay essentially as described (Ericksen, B., Wu, Z., Lu, W., and Lehrer, R. I. (2005) Antimicrob Agents Chemother 49, 269-275) with the following modifications: compounds were exposed for 30 min to […] prior to addition of […] in 10 mM phosphate buffer containing 5% DMSO. Bacterial growth was monitored for 12 hours and data were analyzed as described (Ericksen, et al). Determination of MICs was performed by Micromyx, LLC (Kalamazoo, Mich.) according to CLSI standards (CLSI. (2009) Methods for Dilution Antimicrobial Susceptibility Tests for Bacteria That Grow Aerobically; Approved Standard—Eighth Edition.)
The inventors have previously reported on the antibacterial activity of HNP1 and all of its structurally uncompromised single alanine mutants against S. aureus (Wei, G., Pazgier, M., de Leeuw, E., Rajabi, M., Li, J., Zou, G., Jung, G., Yuan, W., Lu, W. Y., Lehrer, R. I., and Lu, W. J Biol Chem 285, 16275-16285). […] If these residues are indeed important for Lipid II binding, one would expect that replacement by alanine will not affect killing of Gram-negative bacteria. […] In particular, FIG. 12 depicts killing of E. coli by HNP-1 Lipid II single alanine mutants. Survival curves of E. coli ATCC 25922 exposed to HNP-1 or HNP-1 single alanine mutants at concentrations varying two-fold from […]. Bacteria were exposed to defensin peptides for 120 min. Each curve is the mean of two separate experiments (±S.D.). Points scored as zero survival could not be plotted.

Experiment [2] is described as follows: Surface Plasmon Resonance binding to immobilized 3-Lipid II (BIAcore). Particulars: SPR, 10 μM, room temperature, 40 RUs 3-Lipid II. On the procedure: Short-chain water-soluble Lipid II containing a lipid tail of three isoprene units was generated and purified essentially as described (Breukink, E., van Heusden, H. E., Vollmerhaus, P. J., Swiezewska, E., Brunner, L., Walker, S., Heck, A. J., and de Kruijff, B. (2003) J Biol Chem 278, 19898-19903). Typically, M. flavus vesicles (120 μmol lipid-Pi) were incubated together with 500 μmol UDP-GlcNAc, 500 μmol UDP-MurNAC-pentapeptide and 400 μmol farnesyl phosphate (3-P) in 100 mM Tris-HCl pH 8.0, 5 mM MgCl2. The incubation lasted two hours at room temperature for 3-P. The synthesis of 3-Lipid II was followed using RP-8 reversed phase TLC (Merck) developed in 75% methanol. For purification, the membranes were removed by centrifugation at 40,000×g and the supernatant was collected and loaded on a C18 HPLC column and eluted with a linear gradient from 50 mM ammonium bicarbonate to 100% methanol in 30 minutes. Farnesyl-Lipid II (3-Lipid II) eluted at approximately 60% methanol. Its identity was confirmed by mass spectroscopy.
Surface Plasmon Resonance binding experiments were carried out on a BIAcore T100 system (BIAcore Inc., Piscataway, N.Y.) at 25° C. The assay buffer was 10 mM HEPES, 150 mM NaCl, 0.05% surfactant P20, pH 7.4 (±3 mM EDTA) supplemented with 10% DMSO. […] For initial determination of binding, defensin mimetics were introduced into the flow-cells (30 μl/min) in the running buffer at 10 μM. Resonance signals were corrected for nonspecific binding by subtracting the background of the control flow-cell. After each analysis, the sensor chip surfaces were regenerated with 50 mM NaOH for 30 s at a flow rate 100 μl/min, and equilibrated with the buffer prior to next injection. For binding kinetics studies, binding isotherms were analyzed with manufacturer-supplied software for BIAcore T100.
On the technique in general: Surface plasmon resonance follows binding to a sensor surface in real time, without labels.

Experiment [3] relates to Staphylococcus aureus ATCC 29213. The settings on record: previously reported (Wei et al., J Biol Chem 285); cited from earlier work.

Turning to “Leu25: HNP-1 single alanine mutant, Leu25 replaced by alanine”, in experiment [1], the “Bactericidal activity against E. coli relative to wild-type HNP-1” value is recorded as “comparable to the wild-type peptide”. Also, in experiment [2], the “Binding of HNP-1 single alanine mutants to Lipid II compared to wild-type HNP-1” value is “significant reduction of binding”. Further, the “Killing of S. aureus by HNP-1 single alanine mutants” value in experiment [3] is “severely compromised”.

On to “Ile20: HNP-1 single alanine mutant, Ile20 replaced by alanine”, for which the “Bactericidal activity against E. coli relative to wild-type HNP-1” value in experiment [1] was “comparable to the wild-type peptide”. Also, the “Binding of HNP-1 single alanine mutants to Lipid II compared to wild-type HNP-1” value in experiment [2] is “significant reduction of binding”. In addition, the “Killing of S. aureus by HNP-1 single alanine mutants” value in experiment [3] is listed as “severely compromised”.
